In ChEMBL document CHEMBL3758089, “Giffonins J-P, Highly Hydroxylated Cyclized Diarylheptanoids from the Leaves of Corylus avellana Cultivar "Tonda di Giffoni"” (J Nat Prod, 2015):

What was measured:
Format in all cases: functional, cell-based
U2OS [1] = experiment: Cytotoxicity against human U2OS cells expressing wild-type p53 after 24 hrs by crystal violet-staining based spectrophotometric assay
[2] = Cytotoxicity against human Saos2 cells […] after 24 hrs by crystal violet-staining based spectrophotometric assay; conditions: SAOS-2, 24 h
U2OS [3] = experiment: Cytotoxicity against human U2OS cells expressing wild-type p53 after 48 hrs by crystal violet-staining based spectrophotometric assay
[4] = Cytotoxicity against human Saos2 cells […] after 48 hrs by crystal violet-staining based spectrophotometric assay; conditions: SAOS-2, 48 h

Row | Compound | EC50 (U2OS [1]) [µM] | EC50 [2] [µM] | EC50 (U2OS [3]) [µM] | EC50 [4] [µM]
1 | C[C@H]1OC(Oc2c(-c3ccc(O)cc3)oc3cc(O)cc(O)c3c2=O)[C@@H](O)[C@@H](O)[C@@H]1O (stereo partly drawn) | > 150 | > 150 | > 150 | > 150
2 | COc1c2cc(c(OC)c1O)Oc1ccc(cc1)[C@@H](O)C[C@@H](O)/C=C/C=C\2 | > 150 | > 150 | > 150 | > 150
3 | COc1c2cc(c(OC)c1O)Oc1ccc(cc1)[C@@H](O)C[C@@H](O)CC/C=C\2 | > 150 | > 150 | > 150 | > 150
4 | C[C@H]1OC(Oc2c(-c3ccc(O)cc3)oc3cc(O)cc(O)c3c2=O)[C@@H](O)[C@@H](O)[C@@H]1OC(=O)/C=C/c1ccc(O)cc1 (stereo partly drawn) | > 150 | > 150 | > 150 | > 150
5 | Oc1ccc2cc1-c1cc(ccc1O)C[C@H](O)[C@@H](O)[C@@H](O)C[C@@H](O)C2 | > 150 | > 150 | > 150 | > 150
6 | C[C@H]1OC(Oc2c(-c3cc(O)c(O)c(O)c3)oc3cc(O)cc(O)c3c2=O)[C@@H](O)[C@@H](O)[C@@H]1O (stereo partly drawn) | > 150 | > 150 | > 150 | > 150
7 | O=C1C[C@@H](O)Cc2ccc(O)c(c2)-c2cc(ccc2O)C[C@H](O)[C@H]1O | > 150 | > 150 | > 150 | > 150
8 | Oc1ccc2cc1-c1cc(ccc1O)C[C@H](O)[C@H](O)C(O)[C@@H](O)[C@H](O)C2 (stereo partly drawn) | > 150 | > 150 | > 150 | > 150
9 | O=C1CCc2ccc(O)c(c2)-c2cc(ccc2O)C[C@H](O[C@@H]2O[C@H](CO)[C@H](O)[C@@H](O)[C@H]2O)C[C@H]1O | > 150 | > 150 | > 150 | > 150
10 | O=C1CCc2ccc(O)c(c2)-c2cc(ccc2O)C[C@H](O)C[C@H]1O | > 150 | > 150 | > 150 | > 150
11 | C[C@H]1OC(Oc2c(-c3ccc(O)c(O)c3)oc3cc(O)cc(O)c3c2=O)[C@@H](O)[C@@H](O)[C@@H]1O (stereo partly drawn) | > 150 | > 150 | > 150 | > 150
12 | COc1cc(/C=C/C(=O)CC(=O)/C=C/c2ccc(O)c(OC)c2)ccc1O [CURCUMIN] | 34.4 | 48.6 | 22.8 | 28.1
